Consider four compounds from PMC6017046, “Synergistic Promotion on Tyrosinase Inhibition by Antioxidants” (Molecules : A Journal of Synthetic Chemistry and Natural …, 2018).

The structures appear in SMILES notation.

Experiment [1] in a line: DPPH free radical-scavenging capacity assay. The conditions noted are these: 0.1 mmol/L DPPH, 30 min, absorbance 517 nm; read-out: IC50 of antioxidant solutions (DPPH scavenging / DPPH clearance rate). On the procedure: The DPPH free radical-scavenging capacity of the samples are determined according to the method of a previous study with slight modifications. Samples (100l) of various concentrations are added to 100 µL of 0.1 mmol/L DPPH solution in methanol at room temperature. After 30 min, the absorbance is measured at 517 nm with a UV-visible spectrophotometer (MAPADA UV-6100PCS, Shanghai, China). The percentage of free radical (DPPH) scavenging activity (I%) is calculated according to following formula: I%=ODck−ODsample/ODck×100 where ODck is the absorbance of the control reaction, which involves all the reagents except the test compound, and ODsample is the absorbance of the test compound.

Experiment [2] deals with T1, Mushroom tyrosinase (Agaricus bisporus, UniProt C7FF04). Nature of the experiment: Mushroom tyrosinase inhibitory assay, L-tyrosine as substrate. The experiment is classed as biochemical. As to the method: Inhibitory activity against tyrosinase is examined through an improved spectrophotometric method using L-DOPA and L-tyrosine as substrates. […] The reaction mixture is incubated at 37 °C for 15 min. Mushroom tyrosinase (40 µL, 200 units/mL) is added to the reaction mixture and incubated at 30 °C for 20 min.
T1 sequence (C7FF04 1-392): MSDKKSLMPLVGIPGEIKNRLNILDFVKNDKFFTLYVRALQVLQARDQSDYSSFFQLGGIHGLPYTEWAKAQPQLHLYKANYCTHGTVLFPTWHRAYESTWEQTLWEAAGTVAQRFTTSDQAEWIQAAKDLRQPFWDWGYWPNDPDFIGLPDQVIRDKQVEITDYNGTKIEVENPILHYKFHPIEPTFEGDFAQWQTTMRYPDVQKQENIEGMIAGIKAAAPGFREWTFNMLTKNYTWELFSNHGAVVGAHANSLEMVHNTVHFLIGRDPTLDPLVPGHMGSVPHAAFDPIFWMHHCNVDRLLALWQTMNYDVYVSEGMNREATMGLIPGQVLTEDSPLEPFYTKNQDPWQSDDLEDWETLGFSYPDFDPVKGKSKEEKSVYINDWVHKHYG
(§1) Dopachrome formation is monitored at 475 nm with a UV-visible spectrophotometer (MAPADA UV-6100PCS). The rate of the inhibition of tyrosinase activity (I%) is determined according to the following formula: I%=(A2−A1)−(B2−B1)/(A2−A1)×100 where A1 and A2 are the absorbance values of the blank at 475 nm at 0 min and 20 min, respectively, and B1 and B2 is the absorbance levels of the test sample at 475 nm at 0 min and 20 min, respectively.
The 50% inhibition concentration (IC50) value is determined with SPSS 17.0 statistical software (International Business Machines Corporatio, Armonk, NY, USA). All experiments are performed at least in triplicate. Data are analyzed by unpaired Student’s t-test, followed by Dunnett’s multiple comparison test (SPSS version 17.0). P values lower than 0.05 are considered significant. The interactions are calculated using combination index (CI) according to [22]: CI=IC50amix/IC50a+IC50bmix/IC50b where IC50a and IC50b are obtained from pure compounds, and IC50amix is the concentration of individual compound in the mixture that cause 50% inhibition. Obtained CI values equal, smaller, or greater than 1 indicate an additive, synergistic, or antagonistic effect, respectively.

Experiment [3] has as its target T1, Mushroom tyrosinase. As to conditions: ref 1 (GLA), ref 25 (OXYR), ref 26 (RES); cited from earlier work.
In experiment [4] the target is T1, Mushroom tyrosinase. Nature of the experiment: Mushroom tyrosinase inhibitory assay, L-DOPA as substrate. The conditions noted are these: read-out: IC50, tyrosinase activity, single compounds. The format is biochemical. As to the method:
The reaction mixture is incubated at 37 °C for 15 min. Subsequently, 40 µL of 100 units/mL mushroom tyrosinase is added to the reaction mixtures and incubated at 37 °C for 20 min. […] The reaction mixture is incubated at 37 °C for 15 min. Subsequently, 40 µL of 5 mM L-DOPA is added to the reaction mixture and incubated at 30 °C for 20 min.
as §1
The 50% inhibition concentration (IC50) value is determined with SPSS 17.0 statistical software (International Business Machines Corporatio, Armonk, NY, USA). All experiments are performed at least in triplicate. Data are analyzed by unpaired Student’s t-test, followed by Dunnett’s multiple comparison test (SPSS version 17.0). P values lower than 0.05 are considered significant. […]

In experiment [5] the target is T2, tyrosinase activity of PIG1 cells (Homo sapiens, UniProt P14679).
T2 construct: The intracellular tyrosinase activity of the PIG1 cells; host or cells: PIG1 immortalized human epidermal melanocytes
T2 sequence (P14679 19-529): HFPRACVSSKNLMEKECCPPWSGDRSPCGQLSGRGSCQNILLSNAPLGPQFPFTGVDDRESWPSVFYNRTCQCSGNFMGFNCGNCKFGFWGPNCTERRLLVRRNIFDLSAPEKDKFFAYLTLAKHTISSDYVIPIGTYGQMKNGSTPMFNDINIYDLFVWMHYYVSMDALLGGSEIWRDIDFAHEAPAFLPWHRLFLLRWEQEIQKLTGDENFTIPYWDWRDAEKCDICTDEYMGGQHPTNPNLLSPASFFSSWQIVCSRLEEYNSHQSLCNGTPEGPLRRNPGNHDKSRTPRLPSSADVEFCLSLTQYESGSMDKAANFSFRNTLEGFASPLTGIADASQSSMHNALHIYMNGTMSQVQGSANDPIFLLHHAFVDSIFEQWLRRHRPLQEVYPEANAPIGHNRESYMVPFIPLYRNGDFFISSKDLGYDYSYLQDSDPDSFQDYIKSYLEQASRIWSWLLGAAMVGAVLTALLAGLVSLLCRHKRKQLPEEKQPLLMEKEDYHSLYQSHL
Briefly: Intracellular tyrosinase activity assay in UVB-irradiated PIG1 cells (L-DOPA oxidation). The format is cell-based. The conditions noted are these: 300 mJ/cm^2 UVB, 24 h, L-DOPA substrate, read-out: IC50, inhibition against tyrosinase activities.
Experimental: Immortalized human epidermal melanocyte cells from cell line PIG1 are obtained from Shanghai Guandao Bio-engineering Ltd. Co. (Shanghai, China). PIG1 cells are cultured at 37 °C with 5% CO2 in Medium 254 (#M-254-500, Thermo Fisher Scientific, New York, NY, USA) supplemented with human melanocyte growth supplement-2 (Thermo Fisher Scientific, New York, NY, USA) and 5% (v/v) fetal bovine serum (Thermo Fisher Scientific, New York, NY, USA).
The UVB source employed in this study is a Sigma SH4B light therapy device (Shanghai SIGMA High-tech Co., Ltd., Shanghai, China). […] UVB irradiation treatment is conducted when cells reached approximately 70% confluence according to the methods of Zeng et al. [19]. Before UVB irradiation, the supernatant is removed and replaced with PBS. […] The control group receives the same treatment as the UVB group but is not administered any drug.
PIG1 cells (1 × 10^4 cells/well) are seeded in 96-well plates and incubated for 24 h in CO2 until 70–80% confluence is reached. Subsequently, the complete medium is replaced with 100 µL of PBS, and the cells are exposed to 300 mJ/cm^2 UVB irradiation. […] The intracellular tyrosinase activity of the PIG1 cells are estimated by measuring the L-DOPA oxidation capacity according to the method of Rong et al. [21]. […] The products of the reaction are measured by reading the absorbance at 475 nm.

On to `CC1(C)C=Cc2c(ccc3c2OC[C@@H](c2ccc(O)cc2O)C3)O1` [GLA, Glabridin], for which the figures for the IC50 in experiment [1] and in experiment [2] were 458 ± 0.037 µM and 1.5 ± 0.03 µM, respectively. The “mode of tyrosinase inhibition” value in experiment [3] is “non-competitive”.

For the compound `Oc1cc(O)cc(/C=C/c2ccc(O)cc2O)c1` [OXYR, Oxyresveratrol], the figures for the IC50 in experiment [1] and in experiment [2] were 76 ± 0.07 µM and 2.5 ± 0.06 µM, respectively. In experiment [3], the “mode of tyrosinase inhibition” value was “non-competitive”.

Regarding `CC(c1ccccc1)c1ccc(O)cc1O` (centres unmarked) [PR, Phenylethylresorcinol], the IC50 was 119 ± 0.07 µM in experiment [1]; 0.28 ± 0.03 µM in experiment [2] (L-Tyrosine as substrate, read-out: IC50, tyrosinase activity, single compounds); 35.5 ± 0.06 µM in experiment [4]. Moreover, the “mode of tyrosinase inhibition” value in experiment [3] is reported as “non-competitive”.

As for `Oc1ccc(/C=C/c2cc(O)cc(O)c2)cc1` [RES, Resveratrol], the IC50 was 142 ± 0.03 µM in experiment [1], 23 ± 0.05 µM in experiment [2] and more than 100 µM in experiment [5]. Also, the “mode of tyrosinase inhibition” value in experiment [3] is “Kcat or suicide inhibitor”.
